The data set can be described thus: Half-life of milvexian. The conditions noted are these: human, in vivo.

The molecule `C[C@@H]1CCC[C@H](n2cnc(-c3cc(Cl)ccc3-n3cc(Cl)nn3)cc2=O)c2cc(ccn2)-c2c(cnn2C(F)F)NC1=O` [milvexian, (5R,9S)-9-(4-(5-chloro-2-(4-chloro-1H-1,2,3-triazol-1-yl)phenyl)-6-oxopyrimidin-1(6H)-yl)-21-(difluoromethyl)-5-methyl-21H-3-aza-1(4,2)-pyridina-2(5,4)-pyrazolacyclononaphan-4-one] showed a half-life of about 11 h.

These data come from patent publication US20250099466A1 (BRISTOL-MYERS SQUIBB COMPANY, priority 2021, published 2025).
